Experimental data reported in patent US12606533B2, “3-phenylpropylamine derivative” (DAIICHI SANKYO COMPANY, LIMITED, priority 2023, dated 2026).

Tests used:
SF-1 = biological target: T1, SF-1 (Homo sapiens, UniProt Q13285); assay: SF1 degradation induction in NCI-H295R SF-1-HiBiT cells (HiBiT DC50); format: cell-based; conditions: 24 hr, concentration that induces 50% degradation of SF-1
T1 construct: NCI-H295R SF-1-HiBiT cells with HiBiT tag knocked in at the endogenous SF1 locus; host or cells: NCI-H295R SF-1-HiBiT (knock-in at endogenous locus)
Method in brief: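 NCI-H295R cells carrying HiBiT-tagged SF-1, plated and grown 24 hr, then exposed to serially diluted compounds for 24 hr at 37° C. Remaining SF-1 read by lytic HiBiT luminescence; degradation rate from treated vs compound-free signal, DC50 as concentration giving 50% degradation.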

NCI-H295R cells = assay: Proliferation inhibitory action on NCI-H295R (CellTiter-Glo, 7 days); format: cell-based, human; conditions: Homo sapiens, NCI-H295R, 168 h
Method in brief: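 Compounds serially diluted in DMSO; cells seeded at 2×10^3 cells/well and cultured 7 days at 37° C, 5% CO2. CellTiter-Glo 2.0 luminescence read at day 0 and day 7; proliferation rate derived from compound-addition-day signal, untreated day-7 signal and treated day-7 signal.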

SMILES | DC50 (SF-1) [nM] | GI50 (NCI-H295R cells) [nM]
COc1ccc([C@]2(CCN(Cc3ccc(C4=CC[C@H](C(=O)N5CCC(Nc6ccc7c(c6)C(=O)N(C6CCC(=O)NC6=O)C7)CC5)CC4)cc3)CC(C)(C)C(F)(F)F)CCOC(C)(C)C2)cc1 (stereo partly drawn) [BS3, 3-{6-[(1-{[(4R)-4′-{[{2-[(4R)-4-(4-Methoxyphenyl)-2,2-dimethyltetrahydro-2H-pyran-4-yl]ethyl)(3,3,3-trifluoro-2,2-dimethylpropyl)amino]methyl}-2,3,4,5-tetrahydro[biphenyl]-4-yl]carbonyl}piperidin-4-yl)amino]-1-oxo-1,3-dihydro-2H-isoindol-2-yl}piperidine-2,6-dione] | 14 | 70
COc1ccc([C@]2(CCN(Cc3ccc(C4=CC[C@H](C(=O)N5CCC(Nc6cc7c(cc6F)n(C6CCC(=O)NC6=O)c(=O)n7C)CC5)CC4)cc3)CC(C)(C)C(F)(F)F)CCOC(C)(C)C2)cc1 (stereo partly drawn) [BT6, 3-{6-Fluoro-5-[(1-{[(4R)-4′-{[{2-[(4R)-4-(4-methoxyphenyl)-2,2-dimethyltetrahydro-2H-pyran-4-yl]ethyl}(3,3,3-trifluoro-2,2-dimethylpropyl)amino]methyl}-2,3,4,5-tetrahydro[biphenyl]-4-yl]carbonyl}piperidin-4-yl)amino]-3-methyl-2-oxo-2,3-dihydro-1H-benzimidazol-1-yl}piperidine-2,6-dione] | 3.5 | 48
COc1ccc([C@]2(CCN(Cc3ccc(C4=CC[C@H](CN5CCN(C(=O)c6ccc7c8c6OCCn8c(=O)n7C6CCC(=O)NC6=O)CC5)CC4)cc3)CC(C)(C)C(F)(F)F)CCOC(C)(C)C2)cc1 (stereo partly drawn) [BU6, 3-{7-[(4-{[(4R)-4′-{[{2-[(4R)-4-(4-Methoxyphenyl)-2,2-dimethyltetrahydro-2H-pyran-4-yl]ethyl}(3,3,3-trifluoro-2,2-dimethylpropyl)amino]methyl}-2,3,4,5-tetrahydro[biphenyl]-4-yl]methyl}piperazin-1-yl)carbonyl]-2-oxo-4,5-dihydroimidazo[1,5,4-de][1,4]benzoxazin-1(2H)-yl}piperidine-2,6-dione] | 18 | 64
COc1ccc([C@]2(CCN(Cc3ccc(C4=CC[C@H](C(=O)N5CC(Nc6ccc7c8c6CCCn8c(=O)n7C6CCC(=O)NC6=O)C5)CC4)c(F)c3)CC(C)(C)C(F)(F)F)CCOC(C)(C)C2)cc1 (stereo partly drawn) [BW3, 3-{7-[(1-{[(4R)-2′-Fluoro-4′-{[{2-[(4R)-4-(4-methoxyphenyl)-2,2-dimethyltetrahydro-2H-pyran-4-yl]ethyl}(3,3,3-trifluoro-2,2-dimethylpropyl)amino]methyl}-2,3,4,5-tetrahydro[biphenyl]-4-yl]carbonyl}azetidin-3-yl)amino]-2-oxo-5,6-dihydro-4H-imidazo[4,5,1-ij]quinolin-1(2H)-yl}piperidine-2,6-dione] | 9.1 | 86
COc1ccc([C@]2(CCN(Cc3ccc(C4=CC[C@H](C(=O)N5CCC(Nc6ccc7c(c6F)n(C)c(=O)n7C6CCC(=O)NC6=O)CC5)CC4)c(F)c3)CC(C)(C)C(F)(F)F)CCOC(C)(C)C2)cc1 (stereo partly drawn) [BX6, 3-{4-Fluoro-5-[(1-{[(4R)-2′-fluoro-4′-{[{2-[(4R)-4-(4-methoxyphenyl)-2,2-dimethyltetrahydro-2H-pyran-4-yl]ethyl}(3,3,3-trifluoro-2,2-dimethylpropyl)amino]methyl}-2,3,4,5-tetrahydro[biphenyl]-4-yl]carbonyl}piperidin-4-yl)amino]-3-methyl-2-oxo-2,3-dihydro-1H-benzimidazol-1-yl}piperidine-2,6-dione] | 7.1 | 52
COc1ccc([C@]2(CCN(Cc3ccc(C4=CC[C@@H](CN5CCN(C(=O)c6ccc7c8c6NCCn8c(=O)n7C6CCC(=O)NC6=O)CC5)CC4)cc3)CC(C)(C)C(F)(F)F)CCOC(C)(C)C2)cc1 (stereo partly drawn) [BZ7, 3-{7-[(4-{[(4S)-4′-{[{2-[(4R)-4-(4-Methoxyphenyl)-2,2-dimethyltetrahydro-2H-pyran-4-yl]ethyl}(3,3,3-trifluoro-2,2-dimethylpropyl)amino]methyl)-2,3,4,5-tetrahydro[biphenyl]-4-yl]methyl}piperazin-1-yl)carbonyl]-2-oxo-5,6-dihydro-4H-imidazo[1,5,4-de]quinoxalin-1(2H)-yl}piperidine-2,6-dione] | 4 | 27
COc1ccc([C@]2(CCN(CC(C)(C)C(F)(F)F)C[C@H]3CC[C@H](c4ccc(NC(=O)N5CCC(Nc6ccc7c(c6)n(C)c(=O)n7C6CCC(=O)NC6=O)CC5)cc4)CC3)CCOC(C)(C)C2)cc1 (stereo partly drawn) [CA1, 4-{[1-(2,6-Dioxopiperidin-3-yl)-3-methyl-2-oxo-2,3-dihydro-1H-benzimidazol-5-yl]amino}-N-[4-(trans-4-{[{2-[(4R)-4-(4-methoxyphenyl)-2,2-dimethyltetrahydro-2H-pyran-4-yl]ethyl) (3,3,3-trifluoro-2,2-dimethylpropyl)amino]methyl}cyclohexyl)phenyl]piperidine-1-carboxamide] | 5.5 | 48
COc1ccc([C@]2(CCN(Cc3ccc(C4=CC[C@H](C(=O)N5CCN(Cc6ccc7c8c6CN(C)CCn8c(=O)n7C6CCC(=O)NC6=O)CC5)CC4)c(F)c3)CC(C)(C)C(F)(F)F)CCOC(C)(C)C2)cc1 (stereo partly drawn) [CB10, 3-{8-[(4-{[(4R)-2′-Fluoro-4′-{[{2-[(4R)-4-(4-methoxyphenyl)-2,2-dimethyltetrahydro-2H-pyran-4-yl]ethyl}(3,3,3-trifluoro-2,2-dimethylpropyl)amino]methyl}-2,3,4,5-tetrahydro[biphenyl]-4-yl]carbonyl}piperazin-1-yl)methyl]-6-methyl-2-oxo-4,5,6,7-tetrahydroimidazo[4,5,1-jk][1,4]benzodiazepin-1(2H)-yl}piperidine-2,6-dione] | 13 | 85
COc1ccc([C@]2(CCN(Cc3ccc(C4=CC[C@H](C(=O)N5C6COCC5CC(Nc5ccc7c8c5CCCn8c(=O)n7C5CCC(=O)NC5=O)C6)CC4)c(F)c3)CC(C)(C)C(F)(F)F)CCOC(C)(C)C2)cc1 (stereo partly drawn) [CC3, 3-[7-{[(7-Exo)-9-{[(4R)-2′-fluoro-4′-{[{2-[(4R)-4-(4-methoxyphenyl)-2,2-dimethyltetrahydro-2H-pyran-4-yl]ethyl)(3,3,3-trifluoro-2,2-dimethylpropyl)amino]methyl}-2,3,4,5-tetrahydro[biphenyl]-4-yl]carbonyl}-3-oxa-9-azabicyclo[3.3.1]nonan-7-yl]amino}-2-oxo-5,6-dihydro-4H-imidazo[4,5,1-ij]quinolin-1(2H)-yl]piperidine-2,6-dione] | 4.9 | 36
COc1ccc([C@]2(CCN(Cc3ccc(C4=CC[C@H](C(=O)N5CCC(Nc6cccc7c6n(C)c(=O)n7C6CCC(=O)NC6=O)CC5)CC4)c(F)c3)CC(C)(C)C(F)(F)F)CCOC(C)(C)C2)cc1 (stereo partly drawn) [CD2, 3-{4-[(1-{[(4R)-2′-Fluoro-4′-{[{2-[(4R)-4-(4-methoxyphenyl)-2,2-dimethyltetrahydro-2H-pyran-4-yl]ethyl}(3,3,3-trifluoro-2,2-dimethylpropyl)amino]methyl}-2,3,4,5-tetrahydro[biphenyl]-4-yl]carbonyl}piperidin-4-yl)amino]-3-methyl-2-oxo-2,3-dihydro-1H-benzimidazol-1-yl}piperidine-2,6-dione] | 7 | 33
COc1ccc([C@]2(CCN(Cc3ccc(C4=CC[C@H](CN5CCN(C(=O)c6ccc7c8c6NCCn8c(=O)n7[C@H]6CCC(=O)NC6=O)CC5)CC4)cc3)CC(C)(C)C(F)(F)F)CCOC(C)(C)C2)cc1 [CE1, (3S)-3-{7-[(4-{[(4R)-4′-{[{2-[(4R)-4-(4-Methoxyphenyl)-2,2-dimethyltetrahydro-2H-pyran-4-yl]ethyl)(3,3,3-trifluoro-2,2-dimethylpropyl)amino]methyl}-2,3,4,5-tetrahydro[biphenyl]-4-yl]methyl}piperazin-1-yl)carbonyl]-2-oxo-5,6-dihydro-4H-imidazo[1,5,4-de]quinoxalin-1(2H)-yl}piperidine-2,6-dione] | 4.3 | 70
COc1ccc([C@]2(CCN(Cc3ccc(C4=CC[C@H](CN5CCN(C(=O)c6ccc7c8c6NCCn8c(=O)n7[C@@H]6CCC(=O)NC6=O)CC5)CC4)cc3)CC(C)(C)C(F)(F)F)CCOC(C)(C)C2)cc1 [CF1, (3R)-3-{7-[(4-{[(4R)-4′-{[{2-[(4R)-4-(4-Methoxyphenyl)-2,2-dimethyltetrahydro-2H-pyran-4-yl]ethyl)(3,3,3-trifluoro-2,2-dimethylpropyl)amino]methyl}-2,3,4,5-tetrahydro[biphenyl]-4-yl]methyl}piperazin-1-yl)carbonyl]-2-oxo-5,6-dihydro-4H-imidazo[1,5,4-de]quinoxalin-1(2H)-yl}piperidine-2,6-dione] | 5.1 | 84
COc1ccc([C@]2(CCN(Cc3ccc(-c4cccc(CC(=O)NCCNc5ccc6c(c5)n(C)c(=O)n6C5CCC(=O)NC5=O)c4)cc3)CC(C)(C)C(F)(F)F)CCOC(C)(C)C2)cc1 (stereo partly drawn) [Example AA4, N-(2-{[1-(2,6-Dioxopiperidin-3-yl)-3-methyl-2-oxo-2,3-dihydro-1H-benzimidazol-5-yl]amino}ethyl)-2-(4′-{[{2-[(4R)-4-(4-methoxyphenyl)-2,2-dimethyltetrahydro-2H-pyran-4-yl]ethyl)(3,3,3-trifluoro-2,2-dimethylpropyl)amino]methyl}[biphenyl]-3-yl)acetamide] | 12 | 488
COc1ccc(C2(CCN(Cc3ccc(OC4CCN(CC(=O)Nc5cccc6c5n(C)c(=O)n6C5CCC(=O)NC5=O)CC4)cc3)CC(C)(C)C(F)(F)F)CCC(F)(F)CC2)cc1 (stereo not shown) [Example AB6, 2-[4-(4-{[{2-[4,4-Difluoro-1-(4-methoxyphenyl)cyclohexyl]ethyl}(3,3,3-trifluoro-2,2-dimethylpropyl)amino]methyl}phenoxy)piperidin-1-yl]-N-[1-(2,6-dioxopiperidin-3-yl)-3-methyl-2-oxo-2,3-dihydro-1H-benzimidazol-4-yl]acetamide] | 29 | 165
